We go through two compounds from US11970469B2 (Oxford University Innovation Limited, priority 2018, dated 2024).

Structures are written as SMILES.

Test [1] concerns the target T1, GST-human KRas166 (G12V) GPPNHP (Homo sapiens, UniProt P01116, G12V). Kind of test: KRas small-molecule screening by SPR (BIACORE T200). The format is binding. Also on record: KRAS166 (G12V) was immobilized between 10,000 to 15,000 Response Units; made in house; host or cells: E. coli C41(DE3). The conditions noted are these: compounds at final concentration of 100 uM; immobilised KRAS166 (G12V) GPPNHP; no unit printed (method speaks of response units). On the procedure: (§1) For SPR assays pGEX-KRAS(G12V) plasmid was transformed into E. coli C41(DE3). Bacterial cells were cultured at 37° C. to an OD600 of 0.6 and induced with IPTG (final 0.1 mM) at 18° C. over night. The GST fusion proteins were extracted from bacteria pellets after cell disruption in 140 mM NaCl, 2.7 mM KCl, 10 mM NaH2PO4, 1.8 mM KH2PO4, 1 mM EDTA, 2 mM MgCl2 pH 7.4 and purified by glutathione-sepharose column chromatography (GE Healthcare), eluting with 50 mM Tris-HCl pH8.0, 10 mM reduced glutathione, 1 mM DTT, 2 mM MgCl2. The eluted proteins were dialysed against 50 mM Tris-HCl pH8.0, 1 mM DTT, 2 mM MgCl2 and concentrated to 10 mg/ml using a Biomax-30 ULTRAFREE-15 centrifugal filter device (Millipore). Purified KRAS protein was loaded with GPPNHP as described elsewhere (Pacold et al., 2000). Loaded protein was then purified by gel filtration on a HiLoad Superdex-75 HR column (GE Healthcare) in 1×PBS pH7.4, 5 mM MgCl2 and concentrated for storage. Protocol for KRas small-molecule screening and affinity measurements by SPR
To a previously immobilized CM5 chip (GE Healthcare BR-1005-30) with anti GST antibody via amine coupling method, GST in channel 1 and GST-human KRas166 (G12V) GPPNHP in channel 2 were immobilised. GST was immobilised between 2,000 and 5,000 Response units. KRAS166 (G12V) was immobilized between 10,000 to 15,000 Response Units. […]

Test [2] deals with RASG12D/CRAF FL. The test is described as follows: BRET2 cell assay with BRET-based RAS biosensor (RAS-effector) in HEK293T. The conditions noted are these: 10 uM compound, 20 hours. As to the method: 650,000 HEK293T were seeded in each well of a 6 well plate. 24 hours later, cells were transfected with an appropriated BRET-based RAS biosensor (i.e. RAS-effector) using Lipofectamine 2000 transfection reagent (Thermo-Fisher). Cells were detached 24 hours later and washed with PBS and seeded in a white 96 well plate (clear bottom, PerkinElmer, cat #6005181) in OptiMEM no phenol red medium (Life Technologies) complemented with 4% FBS. Cells were left for 4 hours at 37° C. before adding compounds. Stock compounds were held at 10 mM in 100% DMSO and diluted in OptiMEM no red phenol+4% FBS to reach 10× the final concentration (2% DMSO for each concentration). The final concentrations in the cells were 0, 5, 10 and 20 μM (therefore the intermediate 10× concentrations were 0, 50, 100 and 200 μM. 10 μL of 10× compounds were added in each well of the 96 well plate to 0, 5, 10 and 20 μM final concentrations (with final 0.2% DMSO each). Quadruplicates were performed for each point. Cells were left for an additional 20 hours at 37° C. before the BRET2 signal reading directly after addition of Coelenterazine 400a substrate (10 μM final) to cells (Cayman Chemicals, cat #16157). BRET2 reading was carried out on an Envision instrument (2103 Multilabel Reader, PerkinElmer) with the BRET2 Dual Emission optical module (515 nm±30 and 410 nm±80; PerkinElmer).

For test [3], the system named is DLD1 cells (ATCC CCL-221). The test is described as follows: Cell viability assay, DLD-1 (CellTiter-Glo). The format is cell-based. The note with it: Homo sapiens; DLD-1 cells, 72 h, dose response 5, 10, 15, 20 μM. As to the method:
DLD1 cells (ATCC CCL-221) are cultured in RPMI-1640 medium plus 10% foetal calf serum and 2 mM L-glutamine at 37° C. 5% CO2. Cells are plated onto white clear bottom 96-well plates (5000 cells/well in 200 μl media) and left to adhere overnight at 37° C., 5% CO2. Next day, test compound (1 μl at 200× concentration in 100% DMSO) is added to give final test compound concentration 1× in 0.5% DMSO. After 72 h of incubation at 37° C. 5% CO2, 20 μl CellTiter-Glo reagent (Promega G7572) is added into each well. Plates are incubated at room temperature with shaking for 30 min and then luminescence is read using a PheraStar plate reader. The concentration of compounds that decrease cell viability by 50% is calculated from dose response curves generated using Dotmatics data analysis software Results

Test [4] concerns the target T1, GST-human KRas166 (G12V) GPPNHP. The test is described as follows: KRas small-molecule screening by SPR (BIACORE T200). Details: made in house; host or cells: E. coli C41(DE3); key: SPR response units (RU). The note with it: compounds at final concentration of 100 uM; immobilised KRAS166 (G12V) GPPNHP; no unit printed (method speaks of response units). The format is binding. On the procedure: as §1
To a previously immobilized CM5 chip (GE Healthcare BR-1005-30) with anti GST antibody via amine coupling method, GST in channel 1 and GST-human KRas166 (G12V) GPPNHP in channel 2 were immobilised. GST was immobilised between 2,000 and 5,000 Response units. KRAS166 (G12V) was immobilized between 10,000 to 15,000 Response Units.
In a 96 well plate, compounds were diluted in […], 5 mM MgCl2 and 5% DMSO Buffer to a final concentration of 100 uM. DCAI was used as positive control. Experiment also included a solvent correction curve for 5% DMSO. Screening and evaluation of the protein immobilization and the compounds screening was done accordingly to the BIACORE T200 control and evaluation software.
Calculations for how many response units are required for a 1:1 ratio of compound/protein interaction are shown below. • Protein immobilisation: 10,000 RU; average fragment 300 Da in size. Rmax=(MWA/MWL)×RL×SM • MWA is the molecular weight of the analyte in Da • MWL is the molecular weight of the ligand in Da • RL is the immobilization level in RU • SM is the molar stoichiometry (assume 1:1) • Rmax=300/47,500×10,000×1 • Rmax=63 RU. BRET2 Cell Assay

With `COc1cccc(-c2ccc(Nc3ccc(C(=O)NCC4CCN(C(=O)OC(C)(C)C)CC4)cc3)cc2)c1` [Example 19], the SPR in test [1] is on record as 33.
As to `COc1cccc(-c2ccc(Nc3ccc(CN(C)C)cc3)cc2)c1` [Example 1, N-(4-((dimethylamino)methyl)phenyl)-3′-methoxy-[1,1′-biphenyl]-4-amine], the “BRET RASG12D/CRAF FL % Inhibition (10 uM)” value in test [2] is 24%. The same compound had an IC50 in test [3] of 5.3 µM. In test [4], this compound registered an SPR of 230.
